Measurements from patent US8022051B2, “Composition for protection and improvement of skin, or reinforcing skin barrier function comprising phosphatidylserine” (Doosan Corporation, priority 2004, dated 2011).

Columns and labels:
[1] = test system: skin keratinocytes (HaCaT); assay: Protection from ROS (hydrogen peroxide) in skin keratinocytes (MTT assay); assay type: cell-based; conditions: phosphatidylserine 25 μM, vitamin C 100 μM, vitamin E 100 μM, 24 hours; then 1 mM H2O2 about 1-1.5 hours; FIG. 8
Method: In order to measure an effect of protecting the skin from the ROS in the keratinocyte by the phosphatidylserine of the invention, a following experiment was performed.
First, the skin keratinocytes (HaCaT) were seeded to the 24-well plate in an amount of 5×10^4 cells/well. Next day, it was treated with 25 μM phosphatidylserine aqueous solution (Doosan Biotech, Korea) (phosphatidylserine-treated group), 100 μM vitamin C (ascorbic acid-treated group) and 100 μM vitamin E (a-tocopherol-treated group) as the positive control group and then cultured for 24 hours. Next day, it was treated with 1 mM hydrogen peroxide (H2O2) and then cultured for about 1˜1.5 hours. Then, a cell viability was examined with the MTT assay.

[2] = test system: skin keratinocyte cell line (HaCaT) and normal human keratinocytes; assay: Reduction of inflammatory response induced by ultraviolet irradiation in skin keratinocytes (ELISA of TNF-a, IL-6, IL-1alpha); assay type: cell-based; conditions: 25 mJ/cm^2 UVB; phosphatidylserine 20 and 40 μM, WY-14643 200 μM; 24 hours; FIG. 3
Method: In order to examine an inflammatory response-reducing effect of the phosphatidylserine of the invention in the skin keratinocyte, which response results from the ultraviolet irradiation, a following experiment was performed in accordance with a method disclosed in the literature (Stefan et. al., The Journal of Investigate Dermatology, 117, pp 1430-1436, 2001).
First, the skin keratinocyte cell line (HaCaT, a gift from Yonsei univeritym, Korea) was seeded to a 35 mm^2 of cell culture dish in an amount of 3×10^5 cells/dish and then cultured for a day. Next day, the culture medium was removed and the cell was washed with 1× phosphate-buffered saline (PBS), 700 μl of 1×PBS was added to each of the dishes, it was irradiated 25 mJ/cm^2 UVB and then PBS was removed. […] Next day, the culture medium was collected and then amounts of TNF-a and IL-6 which have been known as inflammatory cytokines were measured with an enzyme-linked immunosorbent assay (ELISA) method. In addition, in order to check that there occurred a similar inflammatory response reducing effect also in the normal human skin keratinocyte, an experiment was performed in the above-mentioned manner using normal human keratinocytes (a gift from Dong-guk University) instead of the HaCaT cell line and then an amount of IL-1alpha secreted to the culture medium was measured with the ELISA.

[3] = test system: skin keratinocyte cell line (HaCaT); assay: Protection of skin keratinocytes from ultraviolet injury (MTT assay); assay type: cell-based, human; conditions: 25 mJ/cm^2 UVB; phosphatidylserine 20 and 40 μM, WY-14643 200 μM; 24 hours; FIG. 4
skin = conditions: applied to the skin; Sheu et al., J Invest Dermatol 118, 94-101, 2002; cited from earlier work
[4] = test system: TPA-induced ear inflammation in CD-1 mouse; assay: Alleviation of skin damage (inflammatory response) due to TPA in mouse ear; assay type: in vivo; conditions: TPA 0.03%; applied 30 μl per cm^2 at 45 minutes and 4 hours after induction; phosphatidylserine 0.5%, clofibrate 1 mM, Wy14643 1 mM; FIG. 2
Method: In order to examine a skin damage (inflammatory response)-alleviating effect of the phosphatidylserine of the invention, which damage results from skin inflammation-inducing material, a following experiment was performed in accordance with a method used by Sheu et. al. (The Journal of Investigate Dermatology, 118, pp 94-101, 2002).
First, CD-1 mouse (male & female, 6-8 weeks, Charles River, US) was used as an experimental object. TPA (12-0-tetradecanoylphorbol-13-acetate) 0.03% (wt./vol.; in acetone) solution 10 μl, which was skin inflammation-inducing material, was treated to inner and outer parts of both ears of the experimental animal. The ear was thickened due to TPA and there occurred an inflammatory response. Then, clofibrate (1 mM) and Wy14643 (1 mM) as already-known positive control group, which are agonists of PPAR-a, and the 0.5% phosphatidylserine containing aqueous solution used as the Example 1 as an experimental material were applied to both ears in an amount of 30 μl per cm^2 at times of 45 minutes and 4 hours after the inflammation was induced. After that, the treated parts of the ears were subject to a biopsy, and the biopsy parts were fixed to 4% formaldehyde and then subject to Hematoxylene & Eosin (E&H) staining. The tissue slide stained with H&E was magnified to 100 folds to check the inflammation alleviation.

[5] = test system: normal human keratinocytes; assay: Differentiation promoting effect in skin keratinocytes (western blot of involucrin and transglutaminase); assay type: cell-based; conditions: phosphatidylserine 20 and 40 μM, calcium 1.2 mM, clofibrate 200 and 400 μM; 24 hours; FIG. 5
Method: In order to examine a differentiation promoting effect in the skin keratinocytes by the phosphatidylserine of the invention, a following experiment was performed. First, the normal human keratinocytes (a gift from Dong-guk University) cultured in the KSFM (Keratinocyte-SFM; Gibco BRL/Life Technologies, USA) were seeded to the 35 mm^2 cell culture dish in an amount of 1.5×10^5 cells/dish and then cultured for a day. Next day, the culture medium was removed and a new culture medium containing 20 and 40 μM of phosphatidylserine aqueous solution, 1.2 mM calcium aqueous solution and 200 and 400 μM of clofibrate (Sigma, USA) added thereto was added and cultured for 24 hours. Next day, in order to make sure of a differentiation of the keratinocyte, a morphology change of the cell was checked with a phase contrast microscope (Nikon, Japan) and a photograph was taken with a digital camera attached to the microscope. In addition, a western blot was performed to check the protein expression amount of involucrin and transglutaminase, which have been known as a differentiation-marker proteins of the keratinocyte peculiar to the keratin. 500 μl of a lysis buffer having 2% sodium dodecyl sulfate (SDS) added thereto wad added and the cells were collected with a cell scrapper, so that cell lysate only was obtained. […]

In the case of `Cc1c(C)c2c(c(C)c1O)CC[C@@](C)(CCC[C@H](C)CCC[C@H](C)CCCC(C)C)O2` [a-tocopherol, reference compound], the “protection effect from reactive oxygen species (cell viability, MTT)” value [1] is reported as “exhibited the protection effect”.

For `Cc1cccc(Nc2cc(Cl)nc(SCC(=O)O)n2)c1C` [WY14643, reference compound], the “inflammatory response increased due to the ultraviolet irradiation (TNF-a, IL-6, IL-1alpha amounts)” value [2] is given as “considerably alleviated”, the “protection of skin keratinocytes from ultraviolet injury (cell survival, MTT)” value [3] is given as “protected the skin keratinocytes from the ultraviolet injury” and the “inflammation due to the skin stimulating material” value (skin) is given as “decreased”. For the same compound, the “inflammation alleviation (H&E stained ear tissue)” value [4] was “inflammation was alleviated”.

For `O=C1O[C@H]([C@@H](O)CO)C(O)=C1O` [ascorbic acid, reference compound], the “protection effect from reactive oxygen species (cell viability, MTT)” value [1] was “exhibited the protection effect”.

In the case of `[Ca+2]` [calcium, reference compound], the “protein expression of involucrin and transglutaminase” value [5] is reported as “caused the expressions of the two proteins to be increased”.
